{"source": "patent US10668102B2", "about": "“Lineage differentiation of encapsulated embryonic stem cells” (Rutgers, The State University of New Jersey, priority 2010, dated 2020)", "key": {"[1]": {"system": "ESD3 cells", "settings": "for cell morphology / CNPase expression over time / O1 expression over time: 2D; for cell morphology: Day 30, after 14 days of agonist exposure; for CNPase expression over time / O1 expression over time: agonist from Day 16 to Day 30", "description": "In order to induce differentiation, cells were replated into gelatin coated 6 well plates (Biocoat, BD-Biosciences, Bedford, Mass.) at a density of 1×10^4 cells/cm^2. Cells were placed in DMEM/F12 (Invitrogen, Carlsbad, Calif.) media supplemented with 1% N-2 (Invitrogen—contains human transferrin, insulin, progesterone, putrescine and selenite), 100 U/mL penicillin and 100 U/mL streptomycin for 8 days. Every 2 days, media was aspirated and replaced with fresh media. On day 8, the cells were replated at a density of 0.5×10^4 cells/cm^2 into 24 well plates (Falcon, BD Biosciences, San Jose, Calif.) that were precoated with 0.1% Gelatin (Sigma-Aldrich) for 1 hour at 37° C. To aid in cell attachment, 10 ng/ml basic fibroblast growth factor (bFGF) was added. From day 8 to day 16, 1% Fetal Bovine Serum (FBS-Invitrogen) is added. Every 2 days, media was aspirated and replaced with fresh media.\nOn day 16, the cells are replated at a density of 0.5×10^4 cells/cm^2 into the same differentiation media supplemented with either 10 μM PPAR alpha (Sigma-Aldrich: WY-14643), 1 μM PPAR delta (Sigma-Aldrich: GW0742), or 10 μM PPAR gamma (Sigma-Aldrich: GW1929). All three agonists were dissolved in 0.05% DMSO (Sigma-Aldrich). Every 2 days, media was aspirated and replaced with fresh media with agonists. Cells were fixed for immunofluorescence analysis on Days 22, 26 and 30.\nCells were fixed before doing any immunofluorescence. This was done by first washing the cells 3 times in Tris Buffered Saline (TBS) followed by incubating the cells in 4% paraformaldehyde (Sigma-Aldrich) for 15 minutes at room temperature. The cells were again washed 3 times in TBS for 5 minutes at room temperature). In order to reduce non-specific binding of the antibodies to proteins on/within the cells, they were first blocked for 45 minutes at room temperature by incubating the cells with TBS, 10% goat serum (Invitrogen), 1% Bovine Serum Albumin (BSA-Sigma) and depending on if the protein in question is intracellular, 0.1% Triton X-100. The cells were then incubated overnight at 4° C. with the respective primary antibody in TBS, 1% goat serum and if the protein in question was intracellular, 0.1% Triton X-100. The antibodies used were: 5 μg/ml mouse anti-A2B5 IgM (Chemicon), 2 μg/ml mouse anti-O1 IgM (R&D Systems, Minneapolis, Minn.), 12.6 μg/ml mouse anti-CNPase (2′, 3′-cyclic nucleotide 3′-phosphodiesterase) IgG1 (Sigma) and 8 μg/ml rabbit anti-Myelin Basic Protein IgG (MBP—abcam, Cambridge, Mass.). To account for non-specific binding, isotype controls were used for each antibody: for A2B5 and O1—mouse IgM (Chemicon), for CNPase—mouse IgG1 (BD Biosciences) and for MBP—rabbit IgG (Invitrogen). The cells were washed 3 times for 5 minutes in TBS and if the protein in question was intracellular, 0.1% […]. The cells were then incubated for 1 hour at room temperature with the respective secondary in TBS and if the protein in question is intracellular, 0.1% Triton X-100. The secondaries used were: for A2B5 and O1—Alexa Fluor 488 goat anti-mouse IgM (Invitrogen—1:500), CNPase—Alexa Fluor 488 goat anti-mouse IgG1 (Invitrogen—1:500) and MBP—Alexa Fluor 488 goat anti-rabbit IgG (Invitrogen—1:500). The cells were then washed 2 times in TBS for 5 minutes at room temperature. The cells were counterstained with Hoechst 33342 (Invitrogen) for 10 minutes at room temperature (1 μg/ml).\nFluorescent images were acquired using a computer interfaced inverted Olympus IX70 microscope. Specimens were excited using a 488 nm filter. Fluorescent intensity values were determined for each cell using Olympus Microsuite™ software. Experimental intensity values for each cell were calculated after subtracting the average intensity of the isotype control."}, "[2]": {"system": "ESD3 cells", "assay": "Oil Red O staining of monolayer ESD3 cells", "assay_type": "cell-based, mouse", "settings": "2D, by Day 30", "procedure": "After the cells were fixed using 4% paraformaldehyde, they were then washed twice with PBS and rinsed once with 60% isopropanol (Sigma) for 5 minutes. A 0.18% Oil Red O (Sigma) solution in diH2O was then added to the cells for 10 minutes (diluted down from a 0.3% stock solution of Oil Red O in 99% isopropanol and filtered through filter paper). The cells were then rinsed several times with PBS (30 second rinses) until all excess Oil Red O was removed. […] Images were taken using an Olympus CKX-41 microscope with an Olympus Magnafire Color Camera and Magnafire software v.2.1C.\nOil Red O is a fat-soluble dye used for the staining of neutral triglycerides and lipids and among other things is used to detect myelin and myelin degradation products (Boven, L. A., et al., Brain, 129(Pt 2):517-526 (2006); Zou, T., et al., J. Neuropathol. Exp. Neurol., 65(1):78-86 (2006))."}, "[3]": {"system": "encapsulated ES cells", "assay": "Three dimensional alginate poly-L-lysine encapsulated oligodendrocyte differentiation, immunofluorescence", "assay_type": "cell-based, mouse", "settings": "for O1 expression / CNPase expression / MBP expression: IMDM + RA 8 days then PPAR agonist; for CNPase expression: peak", "procedure": "The alginate encapsulation process was done using the protocol setup by Maguire, T., et al., Biotechnol. Bioeng., 93(3):581-91(2006). Briefly, an alginate solution was generated by dissolving 2.2 g of alginate (Sigma-Aldrich, MW: 100,000-200,000 g/mol, GContent: 65%-70%) in 100 mL of Ca^2+ free DMEM, using a heated magnetic stir plate at a temperature of 45° C. The solution was then filtered using a 25-micron syringe filter (Fisher Brand, Pittsburgh, Pa.). A confluent monolayer of undifferentiated ES cells were removed following trypsin incubation, centrifuged for 10 min at 1,000 rpm, and resuspended in PBS. The cells were washed twice more with PBS, resuspended in 2 mL of their respective media (IMDM, IMDM+Retinoic Acid (RA) (1×10^−7M), DMEM/F12+N2) and both cell number and viability assessed using the method of trypan blue (Gibco) exclusion. To create the cell-alginate mixture, 1 mL of cell suspension with a density of 50×10^6 cells/mL was added to 9 mL of a 2.2% (w/v) alginate solution to yield a final cell density of 5×10^6 cells/mL and a final alginate concentration of 2.0% (w/v). This solution was transferred to a 10 mL syringe (BD Biosciences), which, in turn was connected to a syringe pump (KD Scientific, Holliston, Mass.). Alginate beads were generated using an electrostatic bead generator (Nisco, Zurich, Switzerland) at a flow rate of 40 mL/h, and an applied voltage of 6.5 kV, resulting in beads with a diameter of 500 μm. The beads were collected in a 200 mL bath of CaCl2 (100 mM) (Sigma-Aldrich), containing 145 mM NaCl (Sigma-Aldrich), and 10 mM MOPS (Sigma-Aldrich) and were left to polymerize for 10 minutes at room temperature. Beads were transferred to a tissue culture treated 1-25 flask (Falcon, BD Biosciences), following the polymerization step. The CaCl2 solution was removed using a 5 mL pipette, and the beads were washed with 5 mL of HEPES (Gibco). The HEPES was removed and the beads were re-suspended in 5 mL of poly-L-lysine (PLL) (Sigma-Aldrich, MW: 68,600 g/mol) (0.05% w/v) for 2 min. The PLL was then gently removed, replaced with HEPES to wash the beads and the beads were ultimately re-suspended in 5 mL of cell culture media. Media was changed every 4 days post-encapsulation. In all experimental conditions, monolayer culture configurations were used as controls.\nCells were fixed for immunofluorescence analysis on Days 8, 14, 18 and 22.\nCells were fixed before doing any immunofluorescence.\nSpecimens were excited using a 488 nm filter."}, "[4]": {"system": "ES cell line D3", "assay": "Cell number and viability of alginate-encapsulated ES cells (trypan blue after depolymerization)", "assay_type": "cell-based, mouse", "settings": "2.2% w/v alginate, 5×10^6 cells/mL, with RA", "protocol": "All cell cultures were incubated in a humidified 37° C., 5% CO2 environment. The ES cell line D3 (ATCC, Manassas, Va.) was maintained in an undifferentiated state in T-75 gelatin-coated flasks (Biocoat, BD-Biosciences, Bedford, Mass.) in Knockout Dulbecco's modified Eagles medium (Gibco, Grand Island, N.Y.) containing 15% knockout serum (Gibco), 4 mM L-glutamine (Gibco), 100 U/ml penicillin (Gibco), 100 U/ml streptomycin (Gibco), 10 mg/ml gentamicin (Gibco), 1,000 U/ml ESGRO™ (Chemicon, Temecula, Calif.) and 0.1 mM 2-mercaptoethanol (Sigma-Aldrich, St. Louis, Mo.). Media was changed every two days until plates were confluent. ES cultures were split and passaged every 6 days. Following media aspiration, cells were washed with 10 mL of phosphate buffered solution (PBS) (Gibco), detached using 3 mL of trypsin EDTA (Gibco) for 3 minutes, and subsequently 12 mL of Knockout DMEM was added. Cells were then replated in gelatin-coated T-75 flasks at a density of 1 million cells/mL and only passages 10 through 25 were used in the experiments. In order to induce differentiation, cells were cultured in Iscove's modified Dulbecco's medium (Gibco) containing 20% fetal bovine serum (Gibco), 4 mM L-glutamine (Gibco), 100 U/ml penicillin (Gibco), 100 U/ml streptomycin (Gibco), 10 mg/ml gentamicin (Gibco) in the presence or absence of 10^−7M trans-retinoic acid (Sigma-Aldrich). […]"}, "[5]": {"system": "encapsulated ES cells", "assay": "Intracapsular immunofluorescence of neural lineage markers and albumin in encapsulated ES cells", "assay_type": "cell-based, mouse", "settings": "2.2% alginate, 10^-7 M retinoic acid", "protocol": "Alginate solution was prepared by dissolving 2.2 g of alginic acid sodium salt (MW: 100,000-200,000 g/mol, G Content: 65%-70%, Sigma-Aldrich) in 100 mL of Ca^2+ free DMEM (Gibco), using a heated magnetic stir plate at a temperature of 65° C. The solution was then filtered using a 45 μm syringe filter (Fisher Scientific, Pittsburgh, Pa.). To create the cell-alginate mixture, 1 mL aliquot of cell suspension with a seeding density of 5×10^7 cells/mL was added to 9 mL of either 1.2%, 1.7%, 2.2% or 2.5% (w/v) alginate solution to yield a final cell seeding density of 5×10^6 cells/mL. This solution was transferred to a 10 mL syringe, and was connected to a syringe pump (KD Scientific, MA). Alginate beads were generated using an electrostatic bead generator (Nisco, Zurich, Switzerland) at a flow rate of 40 mL/h, and an applied voltage of 6.4 kV. The beads were extruded into a 200 mL bath of CaCl2 (100 mM), containing 145 mM NaCl, and 10 mM MOPS (all from Sigma-Aldrich) and were left to polymerize for 10 min at room temperature (Maguire, T., et al., Biotechnol. Bioeng., 93(3):581-591 (2006)). Beads were then transferred to a tissue culture treated T-25 flask. The CaCl2 solution was removed using a 5 mL pipette, and the beads were washed with 5 mL of HEPES (Gibco). The HEPES was removed and the beads were resuspended in 5 mL of poly-L-lysine (PLL) (Sigma-Aldrich, MW 68,600 g/mol) (0.05% w/v) for 2 min. The PLL was then gently removed, replaced with HEPES to wash the beads and the beads were ultimately resuspended into 5 mL of IMDM medium (Invitrogen, Carlsbad, Calif.) media with and without 10^−7M trans-retinoic acid (Bain, G., et al., Dev. Biol., 168(2):342-357 (1995)). Media was changed at days 4, 8, 12, 16 and 20 post-encapsulation.\nTo assess the effect of RA on lineage commitment within the alginate microenvironment, individual cells were examined within the encapsulated population using indirect immunofluorescence analysis with a panel of neural lineage specific antibodies, including neurofilament 160 kD (neuronal marker), O1 (oligodendrocyte marker) and GFAP (astrocyte marker). Specific antibody binding was assessed relative to a non-specific immunoglobulin control.\nAfter assessing the neural specific markers, the inventors also investigated the effects of different alginate concentrations, e.g., 1.2%, 1.7% and 2.5%, on neural differentiation in the alginate encapsulation microenvironment.\nEncapsulated cells were washed with PBS (Gibco) and fixed on days 4, 8, 12, 16 and 20 with 4% paraformaldehyde to evaluate surface proteins or together with 0.25% Triton-X to evaluate intracellular protein expression. […]"}, "[6]": {"system": "encapsulated ES cells", "assay": "Intracapsular aggregate size of encapsulated ES cells", "assay_type": "cell-based, mouse", "settings": "in the presence of retinoic acid, entire differentiation period", "protocol": "Bright field images were acquired using an Olympus IX70 microscope and an Olympus digital camera. For each microcapsule, 5 z-sectional images were taken at 50 μm intervals to avoid multiple quantification of the same aggregate, for a total depth of 250 μm. Image quantification was conducted using Olympus Microsuite imaging analysis software."}, "[7]": {"system": "encapsulated ES cells", "assay": "Three dimensional alginate poly-L-lysine encapsulated oligodendrocyte differentiation, immunofluorescence", "assay_type": "cell-based, mouse", "settings": "3D encapsulated, IMDM with Retinoic Acid, Day 12"}}, "data": [{"smiles": "Cc1cccc(Nc2cc(Cl)nc(SCC(=O)O)n2)c1C", "note": "[PPAR alpha, WY-14643]", "values": [{"measurement": "cell morphology", "setting": "[1]", "value": "majority of cells have extended processes with some having secondary branching"}, {"measurement": "CNPase expression over time", "setting": "[1]", "value": "increases over the initial 6 days and stabilizes for the remaining 8 days"}, {"measurement": "O1 expression over time", "setting": "[1]", "value": "drops consistently over the 14 day period"}, {"measurement": "Oil Red O stain compared to control", "setting": "[2]", "value": "minimal effect compared to control"}, {"measurement": "MBP expression over time", "setting": "[3]; 3D, IMDM + RA 8 days then PPAR agonist for 14 days", "value": "stays pretty constant over the time period"}, {"measurement": "O1 expression", "setting": "[3]; 3D, day 18", "value": "~35", "unit": "%"}, {"measurement": "O1 expression", "setting": "[3]; 3D, day 22", "value": "~15", "unit": "%"}, {"measurement": "CNPase expression", "setting": "[3]; 3D, day 22", "value": "about 60%"}]}, {"smiles": "CN(CCOc1ccc(C[C@H](Nc2ccccc2C(=O)c2ccccc2)C(=O)O)cc1)c1ccccn1", "note": "[PPAR gamma, GW1929]", "values": [{"measurement": "cell death compared to all other cases", "setting": "[1]", "value": "significant increase in cell death"}, {"measurement": "cell morphology", "setting": "[1]", "value": "two distinct morphologies"}, {"measurement": "CNPase expression over time", "setting": "[1]", "value": "large increase over the initial 10 days thereafter stabilizing"}, {"measurement": "O1 expression over time", "setting": "[1]", "value": "gradually tapers over the 14 day period"}, {"measurement": "Oil Red O stain compared to control", "setting": "[2]", "value": "significantly higher than control"}, {"measurement": "O1 expression", "setting": "[3]; 3D, day 14", "value": "about 42%"}, {"measurement": "MBP expression", "setting": "[3]; 3D, day 18", "value": "about 74%"}, {"measurement": "MBP expression", "setting": "[3]; 3D, day 22", "value": "about 45%"}, {"measurement": "O1 expression", "setting": "[3]; 3D, day 22", "value": "about 22%"}, {"measurement": "CNPase expression", "setting": "[3]; 3D, day 22", "value": "~53", "unit": "%"}]}, {"smiles": "CC1=C(/C=C/C(C)=C/C=C/C(C)=C/C(=O)O)C(C)(C)CCC1", "note": "[retinoic acid, trans-retinoic acid]", "values": [{"measurement": "final density relative to the initial seeding density", "setting": "[4]; 20-day culture", "value": 2.5, "unit": "times"}, {"measurement": "Cell viability", "setting": "[4]; throughout the culture period", "value": "greater than 95%"}, {"measurement": "encapsulated cells stained positively for intracellular albumin", "setting": "[5]", "value": "less than 5%"}, {"measurement": "maximum percentage of encapsulated cells positively stained for GFAP", "setting": "[5]", "value": 38.6, "unit": "%"}, {"measurement": "maximum percentage of encapsulated cells positively stained for NF 150 kD", "setting": "[5]", "value": 41.9, "unit": "%"}, {"measurement": "maximum percentage of encapsulated cells positively stained for O1", "setting": "[5]", "value": 32.3, "unit": "%"}, {"measurement": "size of individual cells", "setting": "[6]", "value": "approximately 13 μm"}, {"measurement": "A2B5 expression (highest, as stated in text)", "setting": "[3]; 3D encapsulated, exposure to RA for 16 days", "value": 44, "unit": "%"}, {"measurement": "CNPase expression", "setting": "[7]", "value": 32, "unit": "%"}, {"measurement": "O1 expression", "setting": "[7]", "value": 32, "unit": "%"}]}, {"smiles": "Cc1cc(SCc2sc(-c3ccc(C(F)(F)F)c(F)c3)nc2C)ccc1OCC(=O)O", "note": "[PPAR delta, GW0742]", "values": [{"measurement": "cell morphology", "setting": "[1]", "value": "majority of cells have extended processes with some having secondary branching"}, {"measurement": "CNPase expression over time", "setting": "[1]", "value": "gradually increases over the 14 day period"}, {"measurement": "O1 expression over time", "setting": "[1]", "value": "drops sharply over the last 8 days"}, {"measurement": "Oil Red O stain compared to control", "setting": "[2]", "value": "significantly higher than control"}, {"measurement": "differentiation at various concentrations", "setting": "[3]; 3D, 0.1 μM, 1 μM and 10 μM", "value": "No significant differences"}, {"measurement": "MBP expression", "setting": "[3]; 3D, day 22", "value": "~80", "unit": "%"}, {"measurement": "CNPase expression", "setting": "[3]; 3D, day 22", "value": "about 40%"}]}]}
